Assay results from ChEMBL document CHEMBL4321785, “Challenges and Opportunities for Therapeutics Targeting the Voltage-Gated Sodium Channel Isoform NaV1.7” (J Med Chem, 2019).
Values joined by “and” are separate entries in the source; they are usually repeats but may differ in a detail not shown here. Identical values can stand only once.

Assays:
[1] = target: T1, Sodium channel protein type 8 subunit alpha (Homo sapiens, UniProt Q9UQD0); test: Inhibition of human Nav1.6 expressed in HEK293 cells by electrophysiology assay; assay type: cell-based
[2] = target: T2, Sodium channel protein type 5 subunit alpha (Homo sapiens, UniProt Q14524); test: Inhibition of human Nav1.5 expressed in HEK293 cells by electrophysiology assay; assay type: cell-based
T2 sequence (Q14524 whole entry): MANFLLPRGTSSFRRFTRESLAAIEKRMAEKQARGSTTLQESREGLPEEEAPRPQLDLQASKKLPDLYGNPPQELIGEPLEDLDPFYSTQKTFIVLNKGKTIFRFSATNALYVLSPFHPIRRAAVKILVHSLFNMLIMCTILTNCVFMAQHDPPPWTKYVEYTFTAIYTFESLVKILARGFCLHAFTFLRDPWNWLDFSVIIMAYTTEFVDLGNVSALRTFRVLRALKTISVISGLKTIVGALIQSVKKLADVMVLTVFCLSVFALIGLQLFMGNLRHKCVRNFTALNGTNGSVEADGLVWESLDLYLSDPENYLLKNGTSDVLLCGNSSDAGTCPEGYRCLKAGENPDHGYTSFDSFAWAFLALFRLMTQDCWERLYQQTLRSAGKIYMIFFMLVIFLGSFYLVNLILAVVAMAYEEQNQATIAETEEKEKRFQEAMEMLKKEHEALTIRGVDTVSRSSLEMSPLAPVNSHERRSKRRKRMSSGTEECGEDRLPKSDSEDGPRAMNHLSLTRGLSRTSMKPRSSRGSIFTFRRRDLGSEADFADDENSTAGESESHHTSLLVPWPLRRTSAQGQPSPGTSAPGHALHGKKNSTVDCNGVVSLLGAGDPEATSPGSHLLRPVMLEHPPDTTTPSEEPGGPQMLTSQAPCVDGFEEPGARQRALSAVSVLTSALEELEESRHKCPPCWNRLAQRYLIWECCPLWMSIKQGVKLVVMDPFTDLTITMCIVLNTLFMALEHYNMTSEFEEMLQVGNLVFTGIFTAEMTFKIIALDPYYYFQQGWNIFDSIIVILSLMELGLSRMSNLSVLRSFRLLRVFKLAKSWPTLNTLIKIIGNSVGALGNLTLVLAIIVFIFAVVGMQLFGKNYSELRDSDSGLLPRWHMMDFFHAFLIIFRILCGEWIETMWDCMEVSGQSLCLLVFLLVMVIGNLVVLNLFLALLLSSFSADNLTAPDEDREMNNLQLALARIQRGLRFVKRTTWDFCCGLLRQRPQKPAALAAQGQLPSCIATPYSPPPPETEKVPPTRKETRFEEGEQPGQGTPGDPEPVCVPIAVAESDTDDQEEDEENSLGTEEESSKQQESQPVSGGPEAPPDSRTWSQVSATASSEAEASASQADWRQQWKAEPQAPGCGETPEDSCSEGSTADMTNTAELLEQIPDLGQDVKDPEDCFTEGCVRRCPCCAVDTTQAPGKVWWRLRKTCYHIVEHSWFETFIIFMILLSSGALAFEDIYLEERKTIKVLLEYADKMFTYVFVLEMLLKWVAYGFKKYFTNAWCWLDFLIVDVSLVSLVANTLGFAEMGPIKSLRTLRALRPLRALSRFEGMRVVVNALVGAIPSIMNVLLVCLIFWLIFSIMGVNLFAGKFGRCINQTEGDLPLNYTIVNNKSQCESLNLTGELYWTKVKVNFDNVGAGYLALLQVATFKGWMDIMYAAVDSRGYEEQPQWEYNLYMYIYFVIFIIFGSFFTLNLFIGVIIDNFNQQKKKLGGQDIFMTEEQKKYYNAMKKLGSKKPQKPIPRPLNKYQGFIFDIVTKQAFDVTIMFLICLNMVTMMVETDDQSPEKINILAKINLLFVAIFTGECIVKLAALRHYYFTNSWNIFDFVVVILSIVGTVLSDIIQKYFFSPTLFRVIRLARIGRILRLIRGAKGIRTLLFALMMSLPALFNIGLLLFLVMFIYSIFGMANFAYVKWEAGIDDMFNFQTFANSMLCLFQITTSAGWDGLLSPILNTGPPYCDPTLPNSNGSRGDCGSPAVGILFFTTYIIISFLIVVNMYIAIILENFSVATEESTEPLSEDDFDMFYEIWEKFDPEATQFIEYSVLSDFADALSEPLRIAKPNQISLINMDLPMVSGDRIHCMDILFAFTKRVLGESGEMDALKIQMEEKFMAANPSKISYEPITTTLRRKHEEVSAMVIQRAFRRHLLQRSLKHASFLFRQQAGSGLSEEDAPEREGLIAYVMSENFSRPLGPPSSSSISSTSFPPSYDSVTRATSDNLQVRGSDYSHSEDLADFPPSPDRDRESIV

[3] = target: T3, Sodium channel protein type 2 subunit alpha (Homo sapiens, UniProt Q99250); test: Inhibition of human Nav1.2 expressed in HEK293 cells by electrophysiology assay; assay type: cell-based
[4] = target: T4, Sodium channel protein type 4 subunit alpha (Homo sapiens, UniProt P35499); test: Inhibition of human Nav1.4 expressed in HEK293 cells by electrophysiology assay; assay type: cell-based
[5] = target: Sodium channel protein type 10 subunit alpha (Homo sapiens, UniProt Q9Y5Y9); test: Inhibition of human Nav1.8 expressed in HEK293 cells by electrophysiology assay; assay type: cell-based
Homo sapiens [6] = organism: Homo sapiens; test: Selectivity index, ratio of IC50 for inhibition of human Nav1.8 expressed in HEK293 cells by electrophysiology assay to IC50 for inhibition of human Nav1.7 expressed in HEK293 cells by electrophysiology assay; assay type: cell-based
[7] = target: Sodium channel protein type 9 subunit alpha (Homo sapiens, UniProt Q15858); test: Inhibition of human Nav1.7 expressed in HEK293 cells by electrophysiology assay; assay type: cell-based
Homo sapiens [8] = organism: Homo sapiens; test: Selectivity index, ratio of IC50 for inhibition of human Nav1.2 expressed in HEK293 cells by electrophysiology assay to IC50 for inhibition of human Nav1.7 expressed in HEK293 cells by electrophysiology assay; assay type: cell-based
Homo sapiens [9] = organism: Homo sapiens; test: Selectivity index, ratio of IC50 for inhibition of human Nav1.5 expressed in HEK293 cells by electrophysiology assay to IC50 for inhibition of human Nav1.7 expressed in HEK293 cells by electrophysiology assay; assay type: cell-based
Homo sapiens [10] = organism: Homo sapiens; test: Selectivity index, ratio of IC50 for inhibition of human Nav1.6 expressed in HEK293 cells by electrophysiology assay to IC50 for inhibition of human Nav1.7 expressed in HEK293 cells by electrophysiology assay; assay type: cell-based
[11] = Cmax in healthy human; assay type: ADME; conditions: in vivo
[12] = Unbound fraction in mouse plasma; assay type: ADME, cell-free
Homo sapiens [13] = organism: Homo sapiens; test: Selectivity index, ratio of IC50 for inhibition of human Nav1.3 expressed in HEK293 cells by electrophysiology assay to IC50 for inhibition of human Nav1.7 expressed in HEK293 cells by electrophysiology assay; assay type: cell-based
[14] = Ratio of unbound plasma concentration in mouse model of capsaicin-induced pain to IC50 for inhibition of mouse Nav1.7 expressed in HEK293 cells by electrophysiology assay; assay type: cell-based
[15] = target: Sodium channel protein type 9 subunit alpha (Rattus norvegicus, UniProt O08562); test: Inhibition of rat Nav1.7 expressed in HEK293 cells by electrophysiology assay; assay type: cell-based
Homo sapiens [16] = organism: Homo sapiens; test: Selectivity index, ratio of IC50 for inhibition of human Nav1.1 expressed in HEK293 cells by electrophysiology assay to IC50 for inhibition of human Nav1.7 expressed in HEK293 cells by electrophysiology assay; assay type: cell-based
Homo sapiens [17] = organism: Homo sapiens; test: Selectivity index, ratio of IC50 for inhibition of human Nav1.4 expressed in HEK293 cells by electrophysiology assay to IC50 for inhibition of human Nav1.7 expressed in HEK293 cells by electrophysiology assay; assay type: cell-based
[18] = target: T5, Sodium channel protein type 3 subunit alpha (Homo sapiens, UniProt Q9NY46); test: Inhibition of human Nav1.3 expressed in HEK293 cells by electrophysiology assay; assay type: cell-based
T5 sequence (Q9NY46 whole entry): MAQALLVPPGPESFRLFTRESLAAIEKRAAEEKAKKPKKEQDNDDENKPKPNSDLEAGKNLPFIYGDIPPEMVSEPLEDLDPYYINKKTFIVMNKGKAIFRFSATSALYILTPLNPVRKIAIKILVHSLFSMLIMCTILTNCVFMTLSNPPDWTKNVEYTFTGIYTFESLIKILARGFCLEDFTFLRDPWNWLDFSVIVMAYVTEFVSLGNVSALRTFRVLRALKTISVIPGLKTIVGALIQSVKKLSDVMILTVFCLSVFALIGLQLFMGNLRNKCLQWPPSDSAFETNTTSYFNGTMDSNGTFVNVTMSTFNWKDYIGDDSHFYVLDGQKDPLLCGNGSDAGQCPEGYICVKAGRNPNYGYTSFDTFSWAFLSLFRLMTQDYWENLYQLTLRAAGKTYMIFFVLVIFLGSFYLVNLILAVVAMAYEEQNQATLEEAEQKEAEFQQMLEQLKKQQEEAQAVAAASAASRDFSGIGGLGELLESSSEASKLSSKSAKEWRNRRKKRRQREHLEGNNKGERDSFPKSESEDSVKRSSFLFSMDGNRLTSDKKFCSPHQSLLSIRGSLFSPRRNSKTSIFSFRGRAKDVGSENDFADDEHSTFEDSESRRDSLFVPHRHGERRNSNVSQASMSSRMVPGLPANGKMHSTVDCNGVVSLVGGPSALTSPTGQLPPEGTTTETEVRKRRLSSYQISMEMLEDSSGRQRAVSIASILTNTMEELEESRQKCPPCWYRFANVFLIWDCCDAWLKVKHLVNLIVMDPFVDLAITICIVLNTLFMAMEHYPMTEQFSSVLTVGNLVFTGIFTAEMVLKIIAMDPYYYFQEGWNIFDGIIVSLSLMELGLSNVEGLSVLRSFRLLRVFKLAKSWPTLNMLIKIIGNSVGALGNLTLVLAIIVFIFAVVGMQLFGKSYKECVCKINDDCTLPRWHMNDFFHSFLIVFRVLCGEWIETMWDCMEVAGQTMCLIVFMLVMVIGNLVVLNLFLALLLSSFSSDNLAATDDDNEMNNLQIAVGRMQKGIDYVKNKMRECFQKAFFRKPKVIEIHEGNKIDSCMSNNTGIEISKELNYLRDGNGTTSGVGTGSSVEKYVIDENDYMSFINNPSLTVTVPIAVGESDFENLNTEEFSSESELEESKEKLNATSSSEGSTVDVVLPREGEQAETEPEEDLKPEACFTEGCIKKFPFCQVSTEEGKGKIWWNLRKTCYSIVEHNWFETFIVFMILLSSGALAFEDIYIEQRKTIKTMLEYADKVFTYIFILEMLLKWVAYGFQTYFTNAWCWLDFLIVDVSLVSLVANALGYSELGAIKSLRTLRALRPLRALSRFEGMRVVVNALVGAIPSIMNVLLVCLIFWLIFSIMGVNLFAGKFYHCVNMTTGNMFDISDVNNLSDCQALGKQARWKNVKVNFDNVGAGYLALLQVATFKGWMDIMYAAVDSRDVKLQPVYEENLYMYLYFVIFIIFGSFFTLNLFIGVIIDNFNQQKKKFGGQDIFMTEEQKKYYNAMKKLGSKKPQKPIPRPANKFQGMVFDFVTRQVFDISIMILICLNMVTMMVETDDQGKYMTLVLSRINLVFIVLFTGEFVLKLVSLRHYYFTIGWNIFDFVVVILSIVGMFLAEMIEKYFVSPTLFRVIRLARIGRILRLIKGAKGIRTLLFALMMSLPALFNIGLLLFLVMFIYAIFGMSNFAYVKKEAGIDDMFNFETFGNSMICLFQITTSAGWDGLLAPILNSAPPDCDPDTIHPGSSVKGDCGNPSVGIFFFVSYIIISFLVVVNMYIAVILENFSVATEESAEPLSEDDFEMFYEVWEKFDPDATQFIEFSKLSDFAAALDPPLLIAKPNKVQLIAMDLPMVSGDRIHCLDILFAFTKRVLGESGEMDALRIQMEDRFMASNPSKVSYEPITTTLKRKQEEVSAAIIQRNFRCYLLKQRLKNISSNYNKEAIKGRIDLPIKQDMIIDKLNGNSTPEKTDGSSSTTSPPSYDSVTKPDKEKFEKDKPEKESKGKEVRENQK

[19] = target: T6, Sodium channel protein type 1 subunit alpha (Homo sapiens, UniProt P35498); test: Inhibition of human Nav1.1 expressed in HEK293 cells by electrophysiology assay; assay type: cell-based
[20] = Ratio of unbound plasma concentration in mouse model of histamine-induced pain to IC50 for inhibition of mouse Nav1.7 expressed in HEK293 cells by electrophysiology assay; assay type: cell-based
[21] = Ratio of plasma concentration in mouse model of CFA-induced pain at 60 mg/kg, po during Hargreaves test to IC50 for inhibition of mouse Nav1.7 expressed in HEK293 cells by electrophysiology assay; assay type: organism-based; conditions: in vivo
[22] = Ratio of plasma concentration in mouse model of pain at 60 mg/kg, po during hot plate test to IC50 for inhibition of mouse Nav1.7 expressed in HEK293 cells by electrophysiology assay; assay type: organism-based; conditions: in vivo
[23] = target: T2, Sodium channel protein type 5 subunit alpha; test: Binding affinity to human recombinant Nav1.5 by radioligand binding assay
[24] = Plasma concentration in mouse model of capsaicin-induced pain at 60 mg/kg, po during von Frey test; assay type: ADME, organism-based; conditions: in vivo
[25] = target: Sodium channel protein type 9 subunit alpha (Mus musculus, UniProt Q62205); test: Binding affinity to mouse Nav1.7 by radioligand binding assay
[26] = Plasma concentration in mouse model of pain at 60 mg/kg, po during hot plate test; assay type: ADME, organism-based; conditions: in vivo
[27] = Ratio of plasma concentration in mouse model of capsaicin-induced pain at 60 mg/kg, po during von Frey test to IC50 for inhibition of mouse Nav1.7 expressed in HEK293 cells by electrophysiology assay; assay type: organism-based; conditions: in vivo
[28] = Ratio of unbound plasma concentration in mouse model of SNI-induced pain to Kd for binding affinity to mouse Nav1.7 by radioligand binding assay; assay type: ADME; conditions: in vivo
Homo sapiens [29] = organism: Homo sapiens; test: Selectivity ratio of Kd for binding affinity to human recombinant Nav1.2 by radioligand binding assay to Kd for binding affinity to human recombinant Nav1.7 by radioligand binding assay
[30] = Plasma concentration in mouse model of CFA-induced pain at 60 mg/kg, po during Hargreaves test; assay type: ADME, organism-based; conditions: in vivo
[31] = Ratio of unbound plasma concentration in mouse model of STZ-induced pain measured on day 1 to Kd for binding affinity to mouse Nav1.7 by radioligand binding assay; assay type: ADME; conditions: in vivo
[32] = Plasma concentration in mouse model of pain at 60 mg/kg, po during tail immersion test; assay type: ADME, organism-based; conditions: in vivo
Homo sapiens [33] = organism: Homo sapiens; test: Selectivity ratio of Kd for binding affinity to human recombinant Nav1.6 by radioligand binding assay to Kd for binding affinity to human recombinant Nav1.7 by radioligand binding assay
[34] = Ratio of plasma concentration in mouse model of pain at 60 mg/kg, po during Randall-Selitto test to IC50 for inhibition of mouse Nav1.7 expressed in HEK293 cells by electrophysiology assay; assay type: organism-based; conditions: in vivo
[35] = target: T5, Sodium channel protein type 3 subunit alpha; test: Binding affinity to human recombinant Nav1.3 by radioligand binding assay
Homo sapiens [36] = organism: Homo sapiens; test: Selectivity ratio of Kd for binding affinity to human recombinant Nav1.1 by radioligand binding assay to Kd for binding affinity to human recombinant Nav1.7 by radioligand binding assay
Homo sapiens [37] = organism: Homo sapiens; test: Selectivity ratio of Kd for binding affinity to human recombinant Nav1.3 by radioligand binding assay to Kd for binding affinity to human recombinant Nav1.7 by radioligand binding assay
[38] = target: T4, Sodium channel protein type 4 subunit alpha; test: Binding affinity to human recombinant Nav1.4 by radioligand binding assay
[39] = target: Sodium channel protein type 10 subunit alpha (Mus musculus, UniProt Q6QIY3); test: Binding affinity to mouse Nav1.8 […] by radioligand binding assay
[40] = target: T1, Sodium channel protein type 8 subunit alpha; test: Binding affinity to human recombinant Nav1.6 by radioligand binding assay
[41] = Ratio of plasma concentration in mouse model of pain at 60 mg/kg, po during tail immersion test to IC50 for inhibition of mouse Nav1.7 expressed in HEK293 cells by electrophysiology assay; assay type: organism-based; conditions: in vivo
[42] = Plasma concentration in mouse model of pain at 60 mg/kg, po during Randall-Selitto test; assay type: ADME, organism-based; conditions: in vivo
[43] = target: T6, Sodium channel protein type 1 subunit alpha; test: Binding affinity to human recombinant Nav1.1 by radioligand binding assay
Homo sapiens [44] = organism: Homo sapiens; test: Selectivity ratio of Kd for binding affinity to human recombinant Nav1.4 by radioligand binding assay to Kd for binding affinity to human recombinant Nav1.7 by radioligand binding assay
Homo sapiens [45] = organism: Homo sapiens; test: Selectivity ratio of Kd for binding affinity to human recombinant Nav1.5 by radioligand binding assay to Kd for binding affinity to human recombinant Nav1.7 by radioligand binding assay
[46] = Ratio of unbound plasma concentration in mouse model of formalin-induced pain to Kd for binding affinity to mouse Nav1.7 by radioligand binding assay; assay type: ADME; conditions: in vivo
[47] = target: T3, Sodium channel protein type 2 subunit alpha; test: Binding affinity to human recombinant Nav1.2 by radioligand binding assay
[48] = Ratio of unbound plasma concentration in mouse model of CFA-induced cold allodynia to Kd for binding affinity to mouse Nav1.7 by radioligand binding assay; assay type: ADME; conditions: in vivo
[49] = Ratio of unbound plasma concentration in mouse model of inherited erythromelalgia to Kd for binding affinity to recombinant human Nav1.7 by radioligand binding assay; assay type: ADME; conditions: in vivo

## N#Cc1cc(S(=O)(=O)Nc2ncns2)ccc1Oc1ccc(-c2cccc(C(F)(F)F)c2)cc1-c1ccnc(CNCCC2CCNCC2)c1
[1]
  IC50: 0.0058 µM
[2]
  IC50: 2.6 µM
[3]
  IC50: 0.003 µM
[4]
  IC50: 1.5 µM
[5]
  IC50: 26 µM

## O=C1N(Cc2ccc(C(F)(F)F)o2)c2ccccc2[C@]12COc1cc3c(cc12)OCO3 [FUNAPIDE]
Homo sapiens [6]
  Ratio IC50: 89
[1]
  IC50: 0.17 µM
[2]
  IC50: 0.084 µM
[7]
  IC50: 0.054 µM
Homo sapiens [8]
  Ratio IC50: 11
[3]
  IC50: 0.6 µM
Homo sapiens [9]
  Ratio IC50: 1.5
Homo sapiens [10]
  Ratio IC50: 3.1
[5]
  IC50: 4.8 µM

## Nc1[nH]ncc1-c1cc(Cl)ccc1Oc1cc(F)c(S(=O)(=O)Nc2cscn2)cc1Cl [PF-05089771]
[11]
  Cmax: > 10 µg/mL

## COc1cc(-c2cc(F)cc(Cl)c2)c(F)cc1-n1c(=O)ccc2cc(S(=O)(=O)Nc3ccon3)ccc21
[12]
  Fu: 0.014
  fraction unbound: 0.0017
[1]
  IC50: 1.3 µM and > 10 µM
[2]
  IC50: > 14 µM
[2]; hek293
  IC50: > 14 µM
Homo sapiens [13]
  Ratio IC50: > 4300
[14]
  Ratio: 21
[15]
  IC50: 8.6 µM and > 42 µM
Homo sapiens [9]
  Ratio IC50: > 4300
Homo sapiens [16]
  Ratio IC50: > 4300
Homo sapiens [17]
  Ratio IC50: > 4300
[18]
  IC50: > 14 µM
[18]; hek293
  IC50: > 14 µM
[4]
  IC50: > 14 µM
[4]; hek293
  IC50: > 14 µM
[19]
  IC50: > 14 µM
[19]; hek293
  IC50: > 14 µM
[20]
  Ratio: 5.3 and 4

## Cc1nn([C@@H]2CCN([C@H](C)c3cc(Cl)cc(Cl)c3)C2)c2cc(F)c(C(=O)NS(=O)(=O)C3CC3)cc12
[21]
  Ratio: 34
[22]
  Ratio: 25
[23]
  Kd: 0.46 µM
[12]
  fraction unbound: 0.007
[24]
  concentration: 31.1 µM
[25]
  Kd: 0.014 µM
[26]
  concentration: 49.3 µM
[27]
  Ratio: 16
[28]
  Ratio: 5.7
Homo sapiens [29]
  Ratio Ki: 6.4
[30]
  concentration: 67.9 µM
[31]
  Ratio: 5
[32]
  concentration: 49.3 µM
Homo sapiens [33]
  Ratio Ki: 28
[34]
  Ratio: 25
[35]
  Kd: 0.11 µM
Homo sapiens [36]
  Ratio Ki: 6.4
Homo sapiens [37]
  Ratio Ki: 5
[38]
  Kd: 0.047 µM
[39]
  Kd: 22 µM
[40]
  Kd: 0.62 µM
[41]
  Ratio: 25
[42]
  concentration: 49.3 µM
[43]
  Kd: 0.14 µM
Homo sapiens [44]
  Ratio Ki: 2.1
Homo sapiens [45]
  Ratio Ki: 21
[46]
  Ratio: 3.3
[47]
  Kd: 0.14 µM
[48]
  Ratio: 6.2
[49]
  Ratio: 2.3
